Paper PMC10066365, “Nemacol is a small molecule inhibitor of C. elegans vesicular acetylcholine transporter with anthelmintic potential” (Nature Communications, 2023)
Where “and” joins values, the source holds several entries; their conditions need not be identical. Equal values may be shown once. Read-outs that look alike come from different tables or passages of the source.

Legend:
[1] = system: Dirofilaria immitis L3/L4; test: Dirofilaria immitis L3/L4 motility assay (DiroImager, 72 h); settings: Dirofilaria immitis L4
[2] = system: C. elegans; test: C. elegans motor phenotype scoring on solid media (Punc/jerky-unc, coiled, paralyzed), wild-type young adults; assay type: in vivo, Caenorhabditis elegans; settings: for atypical locomotion (number of animals) / coiled (number of animals) / no phene (number of animals) / paralyzed (number of animals) / any phene: mean % fraction of young adults exhibiting any phenotype (coiled, jerky-Unc or paralyzed): one hour; for atypical locomotion (number of animals) / coiled (number of animals) / no phene (number of animals) / paralyzed (number of animals): young adults, 20 animals per trial, single technical replicate; for any phene: mean % fraction of young adults exhibiting any phenotype (coiled, jerky-Unc or paralyzed): mean of three biological replicates
[3] = system: Dirofilaria immitis microfilariae; test: Dirofilaria immitis microfilariae immobility assay (DiroImager, 72 h); settings: Dirofilaria immitis microfilariae
Summary of the method: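 Motility read after 72 h drug exposure with an image-based high-throughput plate imager, 1% DMSO medium serving as negative control. Missouri-isolate microfilariae, roughly 250 per well, freshly purified and cultured in supplemented RPMI 1640.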

[4] = system: Haemonchus contortus; test: Haemonchus contortus L3 Migration Trap Assay (motility, 24 h exposure); settings: for efficacy: hc weybridge, motilityTrap24hNoWash, 24 h, single wells
[5] = target: T1, rat VAChT (Rattus norvegicus, UniProt Q62666); test: [3H]Vesamicol competitive radioligand binding, PC12 cells expressing ratVAChT; settings: [3H]Vesamicol binding
T1 construct: expressed in transfected cells; host or cells: rat PC12 (PC12 A123.7) cells, stably transfected; shared by Dr. Ali Roghani (Texas Tech University)
T1 sequence (Q62666 1-530): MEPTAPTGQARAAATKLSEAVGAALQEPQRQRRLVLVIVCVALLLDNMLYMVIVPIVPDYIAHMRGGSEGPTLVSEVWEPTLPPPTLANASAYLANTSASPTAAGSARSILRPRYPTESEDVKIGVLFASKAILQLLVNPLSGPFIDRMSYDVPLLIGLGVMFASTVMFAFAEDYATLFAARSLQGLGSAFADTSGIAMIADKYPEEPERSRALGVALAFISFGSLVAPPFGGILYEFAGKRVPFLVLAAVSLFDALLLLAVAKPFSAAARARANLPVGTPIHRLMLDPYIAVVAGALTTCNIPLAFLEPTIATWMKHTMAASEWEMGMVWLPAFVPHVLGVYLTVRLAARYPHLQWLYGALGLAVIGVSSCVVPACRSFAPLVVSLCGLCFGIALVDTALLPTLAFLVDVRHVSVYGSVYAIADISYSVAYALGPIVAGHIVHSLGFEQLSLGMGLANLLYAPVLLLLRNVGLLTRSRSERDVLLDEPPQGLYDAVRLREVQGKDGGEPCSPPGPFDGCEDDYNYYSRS

[6] = system: Pristionchus pacificus; test: Pristionchus pacificus motor disruption dose-response on solid media, 1 h; settings: for mean % any phene: any phenotype (coiled, jerky-Unc or paralyzed) at one hour, mean of three biological replicates
[7] = conc 3.75, count of 20 animals per trial, one hour
[8] = conc 15, count of 20 animals per trial, one hour
[9] = conc 60, count of 20 animals per trial, one hour

## CC1CCC(N2CCN(c3ccc(F)cc3)CC2)CC1 (stereo not drawn) [Nemacol-53]
[1]; 10 µM
  % effect (motility), DIROIM L4: 5%
[1]; 50 µM
  % effect (motility), DIROIM L4: 20%
[2]; 3.75uM
  atypical locomotion (number of animals): 6 and 2 and 1 and 3 and 13 and 8
  coiled (number of animals): 0
  no phene (number of animals): 14 and 18 and 19 and 17 and 7 and 12
  paralyzed (number of animals): 0
  any phene: mean % fraction of young adults exhibiting any phenotype (coiled, jerky-Unc or paralyzed): 27.5%
[2]; 15uM
  atypical locomotion (number of animals): 3 and 9 and 11 and 13 and 18 and 17
  coiled (number of animals): 0 and 1 and 4 and 3 and 2
  no phene (number of animals): 4 and 2 and 0 and 3
  paralyzed (number of animals): 13 and 8 and 5 and 4 and 0
  any phene: mean % fraction of young adults exhibiting any phenotype (coiled, jerky-Unc or paralyzed): 92.5%
[2]; 60uM
  atypical locomotion (number of animals): 0 and 2
  coiled (number of animals): 13 and 15 and 9 and 12 and 16
  no phene (number of animals): 0
  paralyzed (number of animals): 7 and 5 and 9 and 6 and 2
[2]; Caenorhabditis elegans, any motor phenotype after 1 h on solid media, ± 95% CI, read-out: C. elegans - motor disruption EC50
  EC50: 5.5 ± 1.6 µM
[3]; 0.016 µM
  % effect (motility), DIROIM MF: 0%
[3]; 0.08 µM
  % effect (motility), DIROIM MF: 0%
[3]; 0.4 µM
  % effect (motility), DIROIM MF: 0%
[3]; 2 µM
  % effect (motility), DIROIM MF: 0%
[3]; 10 µM
  % effect (motility), DIROIM MF: 0%
[4]; EC30 concentration of Nemacol-53 (26.4 µM), P = 0.002
  effect on Ivermectin's ability to paralyze H. contortus: significantly enhance
[4]; H. contortus L3 motility
  EC30: 26 µM
[4]; Haemonchus contortus
  EC50: 40.6 µM
[5]; PC12, experiment 1, read-out: expt 1 Ki (M) vs. rat VAChT (PC12)
  Ki: 5.54e-07 M
[5]; PC12, experiment 2, read-out: expt 2 Ki (M) vs. rat VAChT (PC12)
  Ki: 1.04e-06 M
[5]; rat VAChT (PC12), mean of 2-3 experiments, read-out: mean Ki
  Ki: 7.98e-07 M
[6]; Pristionchus pacificus, 1 h, read-out: P. pacificus motor disruption EC50
  EC50: 12.8 ± 1.2 µM
[6]; conc 3.75
  mean % any phene: 8.333%
[6]; [7]
  rep 1 atypical locomotion: 2 and 3
  rep 1 coiled: 0
  rep 1 no phene: 18 and 17
  rep 1 paralyzed: 0
  rep 2 atypical locomotion: 1
  rep 2 coiled: 0
  rep 2 no phene: 19
  rep 2 paralyzed: 0
  rep 3 atypical locomotion: 2 and 1
  rep 3 coiled: 0
  rep 3 no phene: 18 and 19
  rep 3 paralyzed: 0
[6]; conc 15
  mean % any phene: 57.5%
[6]; [8]
  rep 1 atypical locomotion: 12 and 13
  rep 1 no phene: 7
  rep 1 paralyzed: 0
  rep 2 paralyzed: 0
  rep 3 coiled: 2
[6]; conc 60
  mean % any phene: 100%
[6]; [9]
  rep 1 atypical locomotion: 0
  rep 1 coiled: 8 and 13
  rep 1 no phene: 0
  rep 1 paralyzed: 12 and 7
  rep 2 coiled: 9 and 14
  rep 2 no phene: 0
  rep 2 paralyzed: 10 and 6
  rep 3 atypical locomotion: 2 and 1
  rep 3 coiled: 7 and 12
  rep 3 no phene: 0
  rep 3 paralyzed: 11 and 7

## CC1CCC(N2CCN(c3ccc(F)cc3)CC2)CC1 (stereo not drawn) [Nemacol_53]
[4]; dose 0.00488281 µM
  efficacy: 0
[4]; dose 0.0195312 µM
  efficacy: 0
[4]; dose 80 µM
  efficacy: 90.3789 and 92.5148 and 88.1185
